The text below walks through data of paper PMC8980233, “Differentiating the Neuropharmacological Properties of Nicotinic Acetylcholine Receptor-Activating Alkaloids” (Frontiers in Pharmacology, 2022).

Usually EC50 stands for the midpoint of the concentration-response curve. A low value points to an effect from little substance.

Where a name gives a salt, the structure may show the parent alone.

For data set [1], the system named is C57Bl/6 mice. The data set can be described thus: Tolerability test (body weight, body temperature, passive signs, manipulation responses). Particulars: for tolerability: highest dose 10 mg/kg i.p.; for BT (°C) naïve / Manipulations naïve / Passive naïve: baseline; for BW Day 1 / BW Day 2: mean ± SD. On the procedure: In brief, mice were single-housed prior to the test and evaluated for baseline body weight, body temperature, and other parameters. […] On day 1, the mice were i. p. injected with saline (vehicle) or a test compound at 10 ml/kg body weight. Then, body temperature was measured at 15 min, 4 h, and 24 h and body weight on days 1 and 2. Neurological and motor parameters were evaluated at 15 min, 2 h, and 4 h after administration. The list of parameters is provided in Supplementary Figure S1 in Supplementary Material S1.
In addition, within 5 min after the 15-min observation period, mice were placed in open-field chambers for 30 min to determine their general motor activity (distance traveled), ambulatory time, and number of rears. The open-field chambers were made of Plexiglas (27.3 × 27.3 × 20.3 cm; Med Associates Inc, St Albans, VT, United States) surrounded by infrared photobeam sources (16 × 16 × 16 beams). Horizontal activity (distance and time traveled) and vertical activity (number and frequency of rears) were measured by consecutive beam breaks. At the end of each open-field test session, the chambers were thoroughly cleaned with NOLVASAN® solution (Zoetis Services LLC, Parsippany, NJ, United States). Four mice were used per treatment condition. Mice were terminated after completion of the last tolerability observation.
All compounds were diluted in saline, and the pH was adjusted to approximately 7.0 with HCl or NaOH on the day of the experiment. […] The doses were calculated based on the free base molecular weight of the compounds.
For the tolerability tests, passive signs and manipulation responses were analyzed for effects of the treatment by the Kruskal–Wallis test. Body temperature and body weight data were analyzed by two-way repeated measures analysis of variance (ANOVA). The total distance and time traveled and number and frequency of rears in the open-field activity test were analyzed by one-way ANOVA, followed by the Tukey post-hoc test. For the analyses of the zebrafish NTT data, one-way ANOVA was used, followed by Dunnett’s multiple comparison test, if it passed the Shapiro-Wilk normality test. […] An effect was considered significant if p < 0.05. The half maximal effective concentration (EC50) and half-maximal inhibitory concentration (IC50) for the receptor pharmacology and neurotransmitter release assay were determined by using nonlinear regression analysis. Statistical analyses were conducted using GraphPad Prism.

For data set [2], the system named is dopamine release from striatal synaptosomes. The experiment in a line: In vitro [3H]dopamine release from crude striatal synaptosomes. Conditions: for EC50: striatal synaptosomes. Type of data set: biochemical, rat. On the procedure: In brief, male Sprague Dawley rats (200–225 g) were terminated by cervical dislocation followed by decapitation. The striatums or hippocampi were dissected and homogenized in ice-cold 0.32 M sucrose using a Dounce homogenizer. The homogenates were centrifuged at 100 x g for 5 min to pellet cell debris. The supernatants were collected and centrifuged at 17,000 x g for 10 min at 4°C to pellet crude synaptosomes.
The [^3H]norepinephrine- or [^3H]dopamine-treated crude synaptosomes were loaded onto closed filter chambers containing Whatman® Grade GF/C Glass Microfiber filters (Sigma-Aldrich, Merck KGaA, Darmstadt, Germany) and placed in a superfusion system. […] To ensure an even flow over the synaptosomal bed, trapped air bubbles were removed from the filters prior to collection of the fractions. After a superfusion period of 40 min, three basal fractions (1.5 ml/fraction) were collected first, followed by three fractions (1.5 ml/fraction) containing the test compound. Two additional fractions were collected in the presence of 30 mM KCl to depolarize the synaptosomes. […] Once all fractions were collected, the filters holding the crude synaptosome samples were removed and dried overnight at room temperature. On the following day, the scintillation cocktail was added and the filters were counted to determine residual radioactivity.
(§1) Compound-evoked release of neurotransmitters was calculated by subtracting the counts per minute (CPM) in the two basal fractions collected immediately prior to compound addition from those in the two fractions collected immediately following compound addition. The compound-evoked release was then expressed as a percentage of the basal release from that chamber. Potassium-evoked release was calculated by subtracting the CPM in the fraction immediately prior to KCl addition from the CPM in the […] immediately following potassium addition. Stimulated release was calculated as the percentage of basal release for that chamber. The increase in stimulated release above the baseline (no compound) release for that experimental run was determined, and the latter values were plotted on the graphs. Dose–response curves were determined using non-linear curve fitting in Prism (GraphPad Software, Inc, San Diego, CA, United States). All experiments were repeated at least three times.

Data set [3] has as its system norepinephrine release from hippocampal synaptosomes. The data set can be described thus: In vitro [3H]norepinephrine release from crude hippocampal synaptosomes. The data set is classed as biochemical, rat. On the procedure:
In vitro neurotransmitter assays using crude synaptosome preparations were conducted by Gifford Biosciences Limited (Birmingham, UK) based on the previously described protocols ([Clarke and Reuben, 1996]; [Gifford et al., 2000]). In brief, male Sprague Dawley rats (200–225 g) were terminated by cervical dislocation followed by decapitation. The striatums or hippocampi were dissected and homogenized in ice-cold 0.32 M sucrose using a Dounce homogenizer. The homogenates were centrifuged at 100 x g for 5 min to pellet cell debris. The supernatants were collected and centrifuged at 17,000 x g for 10 min at 4°C to pellet crude synaptosomes. The pellets were resuspended in 5 ml Krebs buffer, pH 7.4 (in mM (pH 7.4): 120 NaCl, 3.3 KCl, 1.2 MgSO4, 1.3 CaCl2, 1.2 K2HPO4, 25 HEPES, 11 glucose, 0.01 ascorbic acid, 0.025 pargyline, and 0.1% BSA containing 2 μCi/ml [^3H]norepinephrine for hippocampal synaptosomes or 1 μCi/ml [^3H]dopamine for striatal synaptosomes and incubated for 15 min at 35°C with gentle shaking.
The [^3H]norepinephrine- or [^3H]dopamine-treated crude synaptosomes were loaded onto closed filter chambers containing Whatman® Grade GF/C Glass Microfiber filters (Sigma-Aldrich, Merck KGaA, Darmstadt, Germany) and placed in a superfusion system. Preoxygenated Krebs buffer was perfused through the chambers at a rate of 1 ml/min at 37 °C using an 8-channel peristaltic pump. To ensure an even flow over the synaptosomal bed, trapped air bubbles were removed from the filters prior to collection of the fractions. After a superfusion period of 40 min, three basal fractions (1.5 ml/fraction) were collected first, followed by three fractions (1.5 ml/fraction) containing the test compound. Two additional fractions were collected in the presence of 30 mM KCl to depolarize the synaptosomes. A 0.4-ml aliquot of each fraction was then transferred to a counting plate, and a scintillation cocktail was added to measure the radioactivity using a Wallac® TriLux 1450 MicroBeta counter (PerkinElmer Life Sciences, Zaventem, Belgium). Once all fractions were collected, the filters holding the crude synaptosome samples were removed and dried overnight at room temperature. On the following day, the scintillation cocktail was added and the filters were counted to determine residual radioactivity.
as §1

The test system of data set [4] is zebrafish (Danio rerio; strain AB). The data set can be described thus: Zebrafish novel tank test (NTT). On the procedure:
Adult male and female wild-type zebrafish were treated with the compounds for 20 min in a final volume of 50 ml in a 250-ml treatment beaker one fish at a time. The fish were briefly rinsed in fresh system water, and then immediately transferred to a trapezoidal tank (14.6 cm height x 5.5 cm width x 27.9 cm top length and x 23.6 cm bottom length) filled with 1.5 L system water. The behavior of the fish was monitored for the next 5 min by using the Noldus EthoVision XT system (Wageningen, Netherlands), with the camera placed approximately 1 m from the test tank. The part of the tank filled with water (11.5 cm height) was virtually divided into top, center, and bottom of equal heights (approximately 3.8 cm per segment) for the analysis. The average time spent at the top and bottom portions of the tank was analyzed to determine the anxiety-like behavior of fish. The average total distance travelled and freezing time were calculated to determine the effects of the compounds on the general behavior of fish. Freezing was defined by a complete cessation of movement except for gills and eyes ([Kalueff et al., 2013]). A minimum of 12 fish (6 females and 6 males) per condition were used for the study. The experimenter was blind to the test conditions.
If not, the dose was reduced until no obvious signs of tolerability problems were observed. […] The concentrations were calculated based on the free base molecular weight. Buspirone—a clinical anxiolytic drug used acutely and chronically to investigate the change in the anxiety-like behavior ([Maximino, et al., 2011]; [Maximino, et al., 2013])—was included as a positive control.

In the case of `O=C(c1ccc(Cl)o1)N1CC2CNCC2C1` (stereo not drawn) [AZD1446, 3-(5-chloro-2-furoyl)-3,7-diazabicyclo[3.3.0]octane], the tolerability entry in data set [1] is “well tolerated”. In data set [2], this molecule yielded an EC50 of 8.4 µM. Further, the “change in norepinephrine release” value in data set [3] is given as “negligible change”.
Regarding `O=C1CC2(CCCC2)CC(=O)N1CCCCN1CCN(c2ncccn2)CC1` [buspirone, buspirone hydrochloride], in data set [4] (100 mg/L), the freezing time entry is recorded as “increased” and the total distance traveled entry was “decreased”. Also, the “time spent at the top” value in data set [4] (all three doses tested (10, 30, and 100 mg/L)) is “increased the time spent at the top”. In addition, the “time spent at the bottom” value in data set [4] (middle two doses (10 and 30 mg/L)) is reported as “reduced the time spent at the bottom”.
Take `O=C(N[C@H]1CN2CCC1CC2)c1ccc(Cl)cc1` [PNU282987]: in data set [1] (1 mg/kg group), the “BT (°C) naïve” value was found to be 36.48 ± 0.38 °C, the “Manipulations naïve” value is 2.00 ± 1.63 and the “Passive naïve” value was 0.25 ± 0.50. Further, in data set [1] (1 mg/kg i.p.), the “BT (°C) 15min” value worked out at 38.13 ± 0.15 °C, the “BT (°C) 4hr” value came to 36.60 ± 0.18 °C, the “BT (°C) 24hr” value turned out to be 36.85 ± 0.66 °C and the “Manipulations 15min” value was determined as 1.25 ± 1.26. Also, in data set [1] (1 mg/kg i.p.), the “Manipulations 2hr” value is listed as 0.75 ± 0.50, the “Manipulations 4hr” value was determined as 0.75 ± 0.96, the “Passive 15min” value is reported as 0.50 ± 0.58 and the “Passive 2hr” value turned out to be 0.00 ± 0.00. In data set [1] (1 mg/kg i.p.), the “Passive 4hr” value is reported as 0.00 ± 0.00, the “BW Day 1” value is 24.03 ± 2.46 and the “BW Day 2” value came out at 23.78 ± 2.61. Besides, in data set [1] (3 mg/kg group), the “BT (°C) naïve” value was 36.50 ± 0.24 °C, the “Manipulations naïve” value is 0.75 ± 0.96 and the “Passive naïve” value was 0.25 ± 0.50. Also, in data set [1] (3 mg/kg i.p.), the “BT (°C) 15min” value came out at 37.85 ± 0.54 °C, the “BT (°C) 4hr” value amounted to 36.63 ± 0.21 °C, the “BT (°C) 24hr” value worked out at 36.40 ± 0.12 °C and the “Manipulations 15min” value was 0.75 ± 0.96. In data set [1] (3 mg/kg i.p.), the “Manipulations 2hr” value is reported as 0.50 ± 0.58, the “Manipulations 4hr” value is on record as 0.25 ± 0.50, the “Passive 15min” value amounted to 0.50 ± 0.58 and the “Passive 2hr” value is given as 0.00 ± 0.00. In addition, in data set [1] (3 mg/kg i.p.), the “Passive 4hr” value is reported as 0.00 ± 0.00, the “BW Day 1” value is 23.38 ± 0.54 and the “BW Day 2” value is on record as 23.47 ± 0.57. Further, in data set [1] (10 mg/kg group), the “BT (°C) naïve” value is 36.73 ± 1.13 °C, the “Manipulations naïve” value worked out at 1.25 ± 0.96 and the “Passive naïve” value worked out at 0.25 ± 0.50. For the same molecule, in data set [1] (10 mg/kg i.p.), the “BT (°C) 15min” value came out at 37.73 ± 0.46 °C, the “BT (°C) 4hr” value was determined as 36.83 ± 0.59 °C, the “BT (°C) 24hr” value stood at 36.10 ± 0.52 °C and the “Manipulations 15min” value stood at 0.50 ± 0.58. Also, in data set [1] (10 mg/kg i.p.), the “Manipulations 2hr” value stood at 0.25 ± 0.50, the “Manipulations 4hr” value is on record as 0.50 ± 0.58, the “Passive 15min” value is 0.00 ± 0.00 and the “Passive 2hr” value turned out to be 0.00 ± 0.00. In data set [1] (10 mg/kg i.p.), the “Passive 4hr” value worked out at 0.00 ± 0.00, the “BW Day 1” value was determined as 23.62 ± 1.10 and the “BW Day 2” value amounted to 22.94 ± 1.25. Also, the tolerability entry in data set [1] is on record as “well tolerated”. The dopamine release in data set [2] (at higher concentrations) is 20–30%. Also, the “change in norepinephrine release” value in data set [3] is “negligible change”.
Consider `CC(=O)OCC[N+](C)(C)C` [acetylcholine], for which the concentration giving a half-maximal response (EC50) came out at 0.27 µM in data set [2] and 13.5 µM in data set [3] (hippocampal synaptosomes).
